# Test results from PubChem BioAssay AID1645865 (Buhrlage Lab, Dana-Farber Cancer Institute and Novartis …, 2021).
# The source made the active and inactive calls.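 Rule for the calls: active = maximal inhibition of the USP30 enzyme reaching 30% or more across the dose series; inactive = the rest.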
# Target: Ubiquitin carboxyl-terminal hydrolase 30 (Homo sapiens) (UniProt Q70CQ3)
# Assay: inhibitors of ubiquitin-specific protease 30 deubiquitylating enzyme, concentration dependence, in vitro biochemical, validation of primary hits (AID 1645865)
# Conditions: purified USP30, Ub-rhodamine cleavage, fluorescence, 2 h
# Ubiquitin carboxyl-terminal hydrolase 30 (Homo sapiens), sequence (Q70CQ3 whole entry, looked up): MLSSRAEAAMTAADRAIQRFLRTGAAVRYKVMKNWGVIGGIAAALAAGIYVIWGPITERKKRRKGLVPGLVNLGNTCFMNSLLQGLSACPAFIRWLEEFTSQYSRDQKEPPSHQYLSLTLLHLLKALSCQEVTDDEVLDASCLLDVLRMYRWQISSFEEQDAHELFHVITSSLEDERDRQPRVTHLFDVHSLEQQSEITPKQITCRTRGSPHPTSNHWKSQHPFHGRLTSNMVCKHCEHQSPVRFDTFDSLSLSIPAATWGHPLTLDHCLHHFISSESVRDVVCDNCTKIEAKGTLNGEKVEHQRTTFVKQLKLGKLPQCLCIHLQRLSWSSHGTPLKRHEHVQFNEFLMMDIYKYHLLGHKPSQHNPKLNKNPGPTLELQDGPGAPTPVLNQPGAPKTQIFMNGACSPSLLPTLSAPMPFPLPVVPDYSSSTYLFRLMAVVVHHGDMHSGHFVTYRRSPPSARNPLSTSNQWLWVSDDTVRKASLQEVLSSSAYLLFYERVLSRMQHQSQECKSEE
row,SMILES,IC50
1,Cn1c(CCN2CCCC2)nc2cc(NC(=O)c3ccccc3)ccc21,> 50 µM (inactive)
2,COc1cccc(NC(=O)Nc2ccc(CCc3nc4ccccc4[nH]3)cc2)c1,28.2 µM
3,Oc1ccc(-c2nc3ccc(Cl)cn3c2NC2CCCCC2)cc1,14.1 µM
4,CCOc1ccc(NC(=O)COc2cccc(-n3cnnn3)c2)cc1,> 50 µM (inactive)
5,COc1ccc(CNC(=O)Nc2cccc3ccccc23)cc1,3.81 µM
6,Cc1c(-c2nn3c(-c4ccco4)nnc3s2)cccc1[N+](=O)[O-],2.6 µM
7,Cc1ccc(CN2C(=O)c3cc4ccccc4n3CC2(C)C(=O)NCc2ccccc2)o1 (stereo unspecified),14.8 µM
8,COc1cccc(OCCCn2c(C(C)NC(=O)c3ccco3)nc3ccccc32)c1 (stereo unspecified),34.8 µM
9,O=C(COc1ccc(F)cc1)Nc1cnc(-c2ccc(Cl)cc2)nc1,38 µM
10,O=[N+]([O-])c1ccc(NCC2COc3ccccc3O2)c(Cl)c1 (stereo unspecified),> 50 µM (inactive)
11,O=C(COC(=O)c1ccc2[nH]c3c(c2c1)CCCC3)Nc1ccc2c(c1)OCO2,37.7 µM
12,Cc1cc(C)n(-c2cccc(C(=O)Nc3ccc4c(c3)CCN4S(C)(=O)=O)c2)n1,> 50 µM (inactive)
13,COc1ccc(-n2ccc(=O)c(-c3nc(-c4ccccc4F)no3)n2)cc1OC,> 50 µM (inactive)
14,COc1ccccc1CNC(=O)C1CCCN(c2nc3ccsc3c(=O)s2)C1 (stereo unspecified),3.45 µM
15,Cc1ccc(-c2nc(Cn3nnc(-c4nc(-c5ccccn5)no4)c3C)c(C)o2)cc1,> 50 µM (inactive)
16,O=C(COc1ccc(S(=O)(=O)N2CCOCC2)cc1)N1CCC(Cc2ccccc2)CC1,49.5 µM
17,Cc1ccc2c(c1C)NC(=O)[C@]21[C@@H]2C(=O)N(c3cccc(Cl)c3)C(=O)[C@@H]2[C@@H]2CCCN21,> 50 µM (inactive)
18,CC1CCN(c2nc(F)c3c(c2F)S(=O)(=O)CCN3Cc2cccnc2)CC1,> 50 µM (inactive)
19,COc1ccccc1NS(=O)(=O)c1cccc(NC(=O)CCc2nc3ccccc3s2)c1,4.01 µM
20,CSc1nc(SCC(N)=O)c2c3c(sc2n1)COC(C)(C)C3,30.6 µM
21,O=C(Nc1cccc(Br)c1)c1cc(-c2cccnc2)n[nH]1,1.55 µM
22,O=C(Nc1cc(F)c2nc(N3CCOCC3)ccc2c1)c1ccc(Br)o1,> 50 µM (inactive)
23,O=C(CCSc1ccc(Cl)cc1)c1cccs1,20.2 µM
24,O=C(Cn1c(=O)n(Cc2ccccc2)c(=O)c2ncccc21)NCc1ccccc1Cl,> 50 µM (inactive)
25,O=C(NCc1cccnc1)c1cnn2c(C(F)(F)F)cc(-c3ccccc3)nc12,> 50 µM (inactive)
26,CN(C)c1ccc(/C=N/NC(=O)c2ccc(Cl)cc2)cc1,10.7 µM

row,SMILES,IC50
1,COc1ccccc1OCCNC(=O)c1cc(C2CC2)nc2c1cnn2C(C)C,> 50 µM (inactive)
2,O=C1c2c(O)c(Cl)cc3c2[C@@]2(Oc4cc(Cl)c(O)c5c4[C@]3(O2)[C@@H]2O[C@@H]2C5=O)[C@@H]2O[C@H]12,1.1 µM
3,Cc1nc2cc(NC(=O)C3CN(C(=O)c4cnccn4)C3)ccc2s1,> 50 µM (inactive)
4,Fc1ccc(Cc2nc(-c3ccc4nncn4c3)no2)cc1,> 50 µM (inactive)
5,O=C(CCn1c(=O)c2ccccc2n(Cc2cc(=O)n3ccccc3n2)c1=O)NCCc1ccc(Cl)cc1,28.5 µM
6,O=C(CSc1cn(Cc2ccccc2)c2ccccc12)Nc1ccc2c(c1)OCCO2,> 50 µM (inactive)
7,CC(=O)Nc1ccc(O)c(-c2nc3cc(C)ccc3o2)c1,3.99 µM
8,CC(C)c1cc(Nc2cccc(F)c2)n2nc(-c3cccnc3)nc2n1,6.35 µM
9,Cc1nc(C(=O)Nc2cccc(Cl)c2Cl)nn1-c1cc(Cl)cc(Cl)c1,0.0981 µM
10,CCn1c(Cn2cccn2)nc2cc(NC(=O)c3ccc(F)cc3)ccc21,> 50 µM (inactive)
11,O=C(c1cn(-c2cccc(F)c2)nn1)N1CCc2ccccc2C1,16.9 µM
12,COc1ccc(OCC(=O)Nc2ccc(C)c(OCc3cc(=O)n4ccccc4n3)c2)cc1,4.77 µM
13,O=C(Cn1c(=O)n(Cc2ccco2)c(=O)c2ccc(C(=O)NC3CCCC3)cc21)NCc1ccco1,> 50 µM (inactive)
14,Cn1c(=O)c2cc(C(=O)Nc3ccc(F)cc3)cnc2n(C)c1=O,25.8 µM
15,O=C(NCc1ccc(Cl)cc1)c1ccc(N2CCCS2(=O)=O)cc1,> 5 µM (inactive)
16,Cc1cc(C)c2cc(CN(CCc3ccccc3)C(=O)Nc3ccccc3)c(=O)[nH]c2c1,> 50 µM (inactive)
17,O=C(COC(=O)c1cc(Cl)ccc1O)Nc1ccc2c(c1)OCCO2,16.3 µM
18,O=C(NCc1ccncc1)C1CCN(c2cncnc2N2CCCCC2)CC1,> 50 µM (inactive)
19,CN(c1ccccc1)c1nc(=O)n(CC(=O)Nc2ccc3c(c2)OCCO3)c2ccccc12,35.9 µM
20,Nc1ccccc1SCc1noc(-c2cccs2)n1,> 50 µM (inactive)
21,O=C(CCCCn1c(=O)c2ccccc2n(CC(=O)Nc2ccc(F)c(Cl)c2)c1=O)NCc1ccco1,> 50 µM (inactive)
22,CC12c3ccc4c(c3C(=O)c3occ(c31)C(=O)CC2O)CCC4=O (stereo unspecified),> 50 µM (inactive)
23,COc1ccc(OC)c(C2CC(=O)Nc3n[nH]c(-c4ccccc4)c32)c1 (stereo unspecified),25.6 µM
24,Cc1ccc(NC(=O)c2cnc(N3CCOCC3)nc2)cc1F,27.6 µM
25,COc1ccccc1-c1nc(Cn2nnc(C(=O)Nc3cc(C)cc(C)c3)c2N)c(C)o1,39.7 µM
26,Cc1c(-c2ccc(C#N)cc2)oc2ccc(Br)cc2c1=O,2.57 µM

row,SMILES,IC50
1,CN(C)c1ccc(CCN2CCc3nc4cccnc4cc3C2)cc1,> 50 µM (inactive)
2,COc1cccc(Cn2nc3n(CC(C)C)c(=O)c4ccc(C(=O)NCC(C)C)cc4n3c2=O)c1,2.37 µM
3,O=C(CN1C(=O)COc2ccc(Cl)cc21)Nc1cccc2ncccc12,> 50 µM (inactive)
4,CCc1ccc(NC(=O)COc2cccc(-n3cnnn3)c2)cc1,26.6 µM
5,N#Cc1ccc(Cc2ncc(C(F)(F)F)cc2Cl)s1,> 50 µM (inactive)
6,COc1ccccc1NC(=O)CSC1=NC2(CCCCC2)Nc2ccccc21,> 50 µM (inactive)
7,COc1cccc(-n2c(=O)[nH]c3c(C(N)=O)nc(-c4ccc(OCc5ccccc5)cc4)nc32)c1,> 50 µM (inactive)
8,O=C1CC(C(=O)Nc2ccc(F)cc2)n2nc(SCc3ccccc3)nc2N1 (stereo unspecified),26.8 µM
9,Cc1noc(-c2ccc(N3CCCC(C(=O)NCc4ccc(F)cc4)C3)nc2)n1 (stereo unspecified),14.6 µM
10,Nc1ccccc1SC(CC(=O)c1ccc(Cl)cc1)c1ccsc1 (stereo unspecified),> 50 µM (inactive)
11,CCn1ccc2c(cc(C(=O)Nc3ccccc3F)n2C)c1=O,> 50 µM (inactive)
12,Cc1ccc(C(=O)N2CCCC3(C2)Nc2cccnc2NC3=NC2CCCC2)s1 (stereo unspecified),> 50 µM (inactive)
13,COc1ccc(-n2c(SCC(=O)c3ccc(F)cc3)nnc2-c2cccnc2)cc1,21.9 µM
14,Oc1cc(OCc2cccc(C(F)(F)F)c2)ccc1-c1ccn[nH]1,37.3 µM
15,O=C(NCc1ccc(-c2nc3cnccc3o2)cc1)c1cc2ccccc2o1,2.99 µM
16,COc1ccc(C2SCC(=O)Nc3c2c(=O)[nH]n3C2CCCCCC2)cc1 (stereo unspecified),23.8 µM
17,Cc1nnc(-c2nnc(NCc3ccc(Cl)cc3)c3ccccc23)o1,> 50 µM (inactive)
18,CN(C)c1ccc(C2CC(c3c(O)n(C)c(=O)[nH]c3=O)=Nc3ccccc3S2)cc1 (stereo unspecified),1.92 µM
19,CCOc1cc(N2CCOCC2)c(OCC)cc1NC(=O)c1cc(-c2ccncc2)nc2ccccc12,3.68 µM
20,COc1cccc(NC(=O)C2CCN(C(=O)c3cc(-c4cccnc4)n[nH]3)CC2)c1,> 50 µM (inactive)
21,Cc1ccc(O)c(-c2cc(C(=O)Nc3ccccc3Cl)[nH]n2)c1,5.93 µM
22,N#Cc1ccc(NC(=O)Nc2cccn(Cc3ccccc3F)c2=O)cc1,3.2 µM
23,Cc1nn(Cc2ccccc2)c(C)c1C(=O)NC1CCCc2ccccc21 (stereo unspecified),> 50 µM (inactive)
24,CCOCCCn1c(SCC(=O)Nc2ccccc2C(F)(F)F)nc2ccccc2c1=O,17.1 µM
25,COc1ccc(OC)c(NC(=O)CS(=O)(=O)c2cn(CC(=O)N3CCC(C)CC3)c3ccccc23)c1,42 µM
26,CC(OC(=O)CNC(=O)c1ccc(Br)cc1)C(=O)Nc1ccc2c(c1)OCCO2 (stereo unspecified),28 µM

row,SMILES,IC50
1,COc1ccc(NC(=O)COc2cc(CSc3ccccc3)ncc2OC)cc1,25.7 µM
2,Cc1nc(C(=O)NC2(O)C(=O)c3ccccc3C2=O)cs1,23.1 µM
3,CN1CCC(N(C)S(=O)(=O)c2ccc(NC(=O)c3cccc(OCc4ccccc4)c3)cc2)CC1,34.3 µM
4,CCOc1ccc(-c2nc(C#N)c(N3CCN(C(=O)c4ccccc4C)CC3)o2)cc1,2.62 µM
5,COc1ccc(-c2cc3c(=O)n(CC(=O)Nc4ccccc4F)ccn3n2)cc1OC,11.8 µM
6,COc1ccc(/C=C/C(=O)N2CCc3ccccc32)cc1S(=O)(=O)N1CCOCC1,> 50 µM (inactive)
7,CC1=C(c2ccc(C)c(C)c2)S(=O)(=O)NC1=NCC(=O)NCCCc1ccccc1,19.7 µM
8,Cc1ccc2cccc(OCc3nnc(SCC(=O)c4ccc(Cl)cc4)n3C)c2n1,2.63 µM
9,O=C(NCc1cccc(NC(=O)C2CC2)c1)Nc1cccc2ccccc12,21.7 µM
10,COc1ccc(OC)c2c(C)cc(N3CCN(S(=O)(=O)c4ccc5c(c4)CCCN5S(C)(=O)=O)CC3)nc12,20.9 µM
11,Cc1ccc(NC(=O)Cc2nnc3cc(-c4nc(C)no4)ccn23)cc1,4.06 µM
12,O=c1sc2ccccc2c(=O)n1Cc1cccc(C(F)(F)F)c1,> 50 µM (inactive)
13,O=C(Cn1nc2c3c4c(sc3ncn2c1=O)CCCCC4)Nc1ccc(Cl)cc1F,1.49 µM
14,CCn1c(CN2CCCC(c3nc(-c4cccnc4)n[nH]3)C2)nc2ccccc21 (stereo unspecified),> 50 µM (inactive)
15,Cc1ccc(CNC(=O)Cn2cnc3c(cnn3-c3cccc(Cl)c3)c2=O)cc1,1.15 µM
16,O=C(c1cnccn1)N1CCc2[nH]c3ccc(F)cc3c2C1,> 50 µM (inactive)
17,CC(=O)N1CCCC(c2nc(C)cc(-c3cc(F)ccc3C(=O)O)n2)C1 (stereo unspecified),> 50 µM (inactive)
18,O=C(CSc1nc2ccccc2n1S(=O)(=O)c1ccc(Br)cc1)Nc1ccc([N+](=O)[O-])cc1Cl,41 µM
19,COc1ccc(C2SCC(=O)Nc3c2c(=O)[nH]n3C2CCCCC2)cc1 (stereo unspecified),30.1 µM
20,CCCCNC(=O)C1Sc2nnc(-c3ccccc3)n2NC1c1ccccc1 (stereo unspecified),21.8 µM
21,Cc1cccc(-n2cnc(C(=O)NCc3ccc(F)cc3)c2)n1,44.9 µM
22,CC(C)CCn1c(=O)c2ccccc2n2c(CCC(=O)NC3CCCCCC3)nnc12,> 50 µM (inactive)
23,Cc1cc(O)c2c3c(c(O)c4c(c13)O[C@@H](C)C4(C)C)C(=O)C2=O,35.1 µM
